The experiment addresses T1, Dimer of Gag-Pol polyprotein [489-587] (Human immunodeficiency virus 1, UniProt P04585).
T1 construct: 489-587
Kind of experiment: Protease Inhibition Assay. The procedure: Inhibition of HIV protease was measured by assay of the cleavage of a fluorescent peptide substrate. The fluorescent product (2-aminobenzoyl-Ala-Thr-His-Gln-Val-Tyr) was separated from the fluorescent substrate by anion-exchange HPLC on a Mono-Q anion-exchange column (Pharmacia), and fluorescence was monitored at an excitation wavelength of 330 nm and an emission wavelength of 430 nm. Ki values for inhibitor binding were estimated at fixed concentrations of substrate and inhibitor from fractional activity measurements by use of the modified Michaelis-Menten equation.

This is an account of results in BindingDB's records for doi:10.1021/jm970524i (Dupont Pharmaceuticals, 1998).

Each structure is given as a SMILES string.

For `NC(=O)NC1=N[C@H](Cc2ccccc2)[C@H](O)[C@@H](O)[C@@H](Cc2ccccc2)N1` [[4R-(4a,5a,6B,7B)]-[Hexahydro-5,6-dihydroxy-4,7-bis(phenylmethyl)-2H-1,3-diazepin-2-ylidene]urea], where the note is “pH 5.5, 37 °C”, the Ki was more than 12500 nM.

Regarding `O=C1N(Cc2cccc(O)c2)[C@H](Cc2ccccc2)[C@H](O)[C@@H](O)[C@@H](Cc2ccccc2)N1Cc1cccc(O)c1`, the Ki was found to be 0.12 nM.

As for `O=C1N(Cc2cccc([N+](=O)[O-])c2)[C@H](Cc2ccccc2)[C@H](O)[C@@H](O)[C@@H](Cc2ccccc2)N1Cc1cccc([N+](=O)[O-])c1`, the Ki stood at 2.8 nM.

On to `O=C1N(Cc2ccc(O)cc2)[C@H](Cc2ccccc2)[C@H](O)[C@@H](O)[C@@H](Cc2ccccc2)N1Cc1ccc(O)cc1`, for which the Ki stood at 0.12 nM.

Consider `O=C1N(Cc2cccc(CO)c2)[C@H](Cc2ccccc2)[C@H](O)[C@@H](O)[C@@H](Cc2ccccc2)N1Cc1cccc(CO)c1` [(4R,5S,6S,7R)-4,7-dibenzyl-5,6-dihydroxy-1,3-bis({[3-(hydroxymethyl)phenyl]methyl})-1,3-diazepan-2-one], for which the Ki was found to be 0.14 nM.

As usually defined, the Ki is the dissociation constant of the complex between target and ligand, obtained from inhibition or displacement.
